In PMC7349874, “High Content Screening Using New U2OS Reporter Cell Models Identifies Harmol Hydrochloride as a Selective and Competitive Antagonist of the Androgen Receptor” (Cells, 2020):
Where a name gives a salt, the structure may show the parent alone.

Columns and labels:
GR [1] = assay: GR expression (RT-qPCR and Western blot) in VCaP cells; details: 3 µM, 24 h, 1 nM R1881
Experimental: (§1) LNCaP and VCaP cells were seeded in 6-well plates (10^6 and 2 × 10^6 cells per well, respectively) and, 48 h later, complete medium was replaced by charcoal-stripped medium with 5% FBS. Cells were then treated for 24 h with the tested compounds, and RNA extraction was performed using the Quick RNA Miniprep kit (Zymo-Research, Irvine, CA, USA), according to the manufacturer’s protocol. Reverse transcription was performed with 0.5 µg total RNA using the SuperScript III reverse transcriptase kit (ThermoFisher, Waltham, MA, USA), according to the manufacturer’s protocol, in a final volume of 20 µL. The levels of genes transcripts were measured by real time PCR using a LightCycler 480 system (Roche Life Science, Penzberg, Germany) in the presence of SYBRGreen (SYBR® Premix Ex Taq^tm) and the following primers: FKBP5, sense 5′-[sequence]-3′; antisense 5′-[sequence]-3′; PSA, sense 5′-[sequence]-3′; antisense 5′-[sequence]-3′; TMPRSS2, sense 5′-[sequence]-3′, antisense 5′-[sequence]-3′; GR, sense 5′-[sequence]-3′, antisense 5′-[sequence]-3′; HPRT, sense 5′-[sequence]-3′; antisense 5′-[sequence]-3′; GAPDH, sense 5′-[sequence]-3′; antisense 5′-[sequence]-3′. Expression levels were evaluated with the ΔΔCt method and were normalized to GAPDH. Results are expressed as mRNA expression, relative to control (untreated cells), and are the mean ± SEM of 3 independent experiments. […]

GR [2] = assay: GR expression (RT-qPCR and Western blot) in LNCaP cells; details: 3 µM, 24 h, 1 nM R1881
Experimental: as §1

[3] = design: method as in PMID 19363158; details: cited from earlier work
LNCaP cells = assay: Spheroid growth (CellTiter-Glo), LNCaP; details: 7 days, 1 nM R1881
AR [4] = molecular target: T1, AR (Homo sapiens, UniProt P10275); assay: Transactivation assay in PC3 hAR MMTV-luc (PALM) cells; details: for IC50: IC50 of AR transactivation inhibition
T1 sequence (P10275 1-920): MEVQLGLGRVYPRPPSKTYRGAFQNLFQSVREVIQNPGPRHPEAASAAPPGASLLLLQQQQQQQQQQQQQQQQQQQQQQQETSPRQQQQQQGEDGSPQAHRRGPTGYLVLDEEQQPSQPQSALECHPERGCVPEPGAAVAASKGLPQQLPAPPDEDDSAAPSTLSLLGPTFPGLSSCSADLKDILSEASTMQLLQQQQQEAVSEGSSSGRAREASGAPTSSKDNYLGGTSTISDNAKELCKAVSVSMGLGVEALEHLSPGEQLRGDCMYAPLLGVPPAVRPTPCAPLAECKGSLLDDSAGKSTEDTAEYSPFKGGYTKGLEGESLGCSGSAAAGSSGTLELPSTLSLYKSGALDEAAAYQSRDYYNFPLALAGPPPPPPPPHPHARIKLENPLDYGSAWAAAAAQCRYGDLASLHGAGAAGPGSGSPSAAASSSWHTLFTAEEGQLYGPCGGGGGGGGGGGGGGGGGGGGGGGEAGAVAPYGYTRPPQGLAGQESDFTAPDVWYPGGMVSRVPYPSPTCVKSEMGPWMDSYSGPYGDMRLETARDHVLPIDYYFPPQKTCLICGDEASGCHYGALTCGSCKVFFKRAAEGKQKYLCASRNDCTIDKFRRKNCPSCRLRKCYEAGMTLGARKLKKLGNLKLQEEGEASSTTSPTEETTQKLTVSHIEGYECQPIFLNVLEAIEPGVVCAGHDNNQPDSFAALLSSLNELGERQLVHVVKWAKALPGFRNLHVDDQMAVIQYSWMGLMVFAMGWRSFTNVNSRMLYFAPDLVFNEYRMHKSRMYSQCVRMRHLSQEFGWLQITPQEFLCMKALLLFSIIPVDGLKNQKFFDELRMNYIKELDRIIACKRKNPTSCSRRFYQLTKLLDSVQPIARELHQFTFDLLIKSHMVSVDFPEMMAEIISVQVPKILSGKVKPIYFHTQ

DU145 cells = assay: Spheroid growth (CellTiter-Glo), DU145; type: cell-based, human; details: 7 days, AR negative cells
[5] = molecular target: T2, full-length wild-type AR (hAR) (Homo sapiens, UniProt P10275); assay: Transactivation (luciferase) assay in U2OS-hAR-ARE-Luc reporter cells, screen and validation; type: cell-based; details: for Results of 1st screen on AR: 0.3, 1, 3, 10 µM, 16 h, hit = AR transcriptional activity changed by more than 50% dose-dependently, <20% effect in control cells
T2 sequence (P10275 1-920): T1 sequence (P10275 1-920)
Experimental: U2OS-hAR-ARE(Rad9)-Luc and U2OS-hARv7-ARE(PB)-Luc were then used to screen the Prestwick phytochemical library®, containing 320 natural compounds, at four concentrations (0.3, 1, 3, 10 µM) in duplicate.

[6] = test system: AR target genes TMPRSS2, FKBP5, PSA; assay: RT-qPCR of AR target genes in LNCaP cells; details: 3 µM, 24 h, 1 nM R1881
Experimental: LNCaP and VCaP cells were seeded in 6-well plates (10^6 and 2 × 10^6 cells per well, respectively) and, 48 h later, complete medium was replaced by charcoal-stripped medium with 5% FBS. Cells were then treated for 24 h with the tested compounds, and RNA extraction was performed using the Quick RNA Miniprep kit (Zymo-Research, Irvine, CA, USA), according to the manufacturer’s protocol. Reverse transcription was performed with 0.5 µg total RNA using the SuperScript III reverse transcriptase kit (ThermoFisher, Waltham, MA, USA), according to the manufacturer’s protocol, in a final volume of 20 µL. The levels of genes transcripts were measured by real time PCR using a LightCycler 480 system (Roche Life Science, Penzberg, Germany) in the presence of SYBRGreen (SYBR® Premix Ex Taq^tm) and the following primers: FKBP5, sense 5′-[sequence]-3′; antisense 5′-[sequence]-3′; PSA, sense 5′-[sequence]-3′; antisense 5′-[sequence]-3′; TMPRSS2, sense 5′-[sequence]-3′, antisense 5′-[sequence]-3′; GR, sense 5′-[sequence]-3′, antisense 5′-[sequence]-3′; HPRT, sense 5′-[sequence]-3′; antisense 5′-[sequence]-3′; GAPDH, sense 5′-[sequence]-3′; antisense 5′-[sequence]-3′. Expression levels were evaluated with the ΔΔCt method and were normalized to GAPDH. Results are expressed as mRNA expression, relative to control (untreated cells), and are the mean ± SEM of 3 independent experiments.

AR [7] = molecular target: T1, AR; assay: cell-based; type: binding
Experimental: U2OS hAR-AREluc cells were seeded at a density of 80,000 cells per well in clear-bottomed 96-well plates (Greiner Bio-One, Courtaboeuf, France). […] Cells were then lysed with 50 μL of LSC-cocktail (Emulsifier-Safe, Packard BioScience, Wellesley, MA, USA), and [^3H]-bound radioactivity was counted in scintillation liquid with a microbeta trilux (Perkin Elmer, Wellesley, MA, USA). Non-specific binding was determined in the presence of 300 nM unlabeled R1881. Specific binding was calculated by subtracting non-specific binding from the total binding, and expressed as disintegrations per minute (dpm). […] Relative binding affinities (RBA) were calculated as IC50 ratios between each competitor and R1881. The RBA value for R1881 was arbitrarily set at 100.
Non-specific binding was determined in the presence of 300 nM unlabeled R1881. Specific binding was calculated by subtracting non-specific binding from total binding. Results were plotted as % of maximal [^3H]-labeled R1881 binding as a function of drug concentrations (n = 3 ± SEM).

[8] = listed as Harmol hydrochloride monohydrate

Question: Which “Expression of GR at the mRNA and protein levels” value (GR [1]) does the source give for `Cc1nccc2c1[nH]c1cc(O)ccc12` [harmol hydrochloride, Harmol hydrochloride monohydrate] here?
Answer: Its value is “neither harmol nor enzalutamide treatment could significantly alter the expression of GR”.

Question: And the “Expression of GR at the mRNA and protein levels” value (GR [2])?
Answer: Its value is “neither harmol nor enzalutamide treatment could significantly alter the expression of GR”.

Question: And the “Metabolism when administered in mice” value [3]?
Answer: Its value is “rapidly metabolized”.

Question: And the “Growth of LNCaP spheroids” value (LNCaP cells)?
Answer: Its value is “A similar effect was observed”.

Question: And the “Inhibition of AR transactivation” value (AR [4]; 10 nM R1881)?
Answer: Its value is “inhibition was not significant”.

Question: What about the IC50 (AR [4]; R1881 0.1 nM) of the same compound?
Answer: Its IC50 is 0.183 µM.

Question: And the IC50 (AR [4]; R1881 0.3 nM)?
Answer: The IC50 was 0.535 µM.

Question: And the IC50 (AR [4]; R1881 1 nM)?
Answer: Its IC50 is 1.9 µM.

Question: What about the “Growth of DU145 spheroids” value (DU145 cells) of the same compound?
Answer: The value was “no effect”.

Question: What about the “Nature of AR inhibition (competitive or non-competitive)” value ([5]; 1 nM versus 100 nM R1881) of the same compound?
Answer: The value was “competitive antagonism”.

Question: What about the “Results of 1st screen on AR” value [5, 8] of the same compound?
Answer: The value was “Inhibition”.

Question: What about the “Results of 1st screen on AR” value ([5]; listed as harmol) of the same compound?
Answer: The value was “active inhibitors of AR transcriptional activity”.

Question: And the “Results of confirmatory screen (validation of AR inhibition)” value [5, 8]?
Answer: Its value is “Confirmed”.

Question: And the “Results of confirmatory screen (validation of AR inhibition)” value ([5]; listed as harmol)?
Answer: The value was “could impair the transcriptional activity of AR”.

Question: And the “Expression of the AR non-target gene HPRT” value [6]?
Answer: The value was “unaffected”.

Question: What about the “R1881-mediated expression of AR target genes TMPRSS2, FKBP5, PSA” value [6] of the same compound?
Answer: Its value is “significant decrease”.

Question: And the “Concentration competing with ligand binding relative to enzalutamide” value (AR [7])?
Answer: The value was 3.5 fold.

Question: And the IC50 (AR [7]; 0.3 nM [3H]-R1881, 3 h, 37 °C, read-out: IC50 of competition with [3H]-R1881 for AR binding)?
Answer: The IC50 was 0.54 µM.
